In US8895504B2, “Amylin derivatives” (priority 2008, dated 2014):
pEC50: −log10 of the molar value. *1 amine or outer side, *2 acyl side, *3 side chain or, on linkers, in order; H or OH if unused. Where a SMILES comes first, the peptide text is derived from it. Bridges are numbered along the chain shown (N, C = ends). The star is where a group is joined. C20 diacid = O=C(O)CCCCCCCCCCCCCCCCCCC(=O)*; γGlu = O=C(O)[C@H](CCC(=O)[*:2])N[*:1]; AEEA = NCCOCCOCC(=O)O

Experiments:
[1] = Assay (V) PK - determination of T½ in mini-pig; format: in vivo; details: minipig, sc; terminal plasma half-life, subcutaneous, approx 2 nmol/kg, male Göttingen mini-pigs
Description: Assay (V) PK—Determination OF T½ in Mini-Pig
T½ is the terminal half-life=ln 2/λz of a compound in plasma. λz is the first order rate constant associated with the terminal (log-linear) portion of the plasma concentration-time curve and is estimated by linear regression of time vs. log concentration.
T½ values of the amylin analogues of the invention is determined by pharmacokinetic studies in male Göttingen mini-pigs from Ellegaard Göttingen Minipigs ApS and the principles of laboratory animal care are followed.
An acclimatization period of approximately 6-10 days was allowed before the animals entered the study. At start of the acclimatization period the mini-pigs were about 5 to 12 months old and in the weight range of 7-35 kg. The mini-pigs had two central venous catheters inserted which were used for blood sampling.
The studies were conducted in an animal room which was illuminated to give a cycle of approx 12 hours light and 12 hours darkness. The animals were housed individually.
The animals had free access to domestic quality drinking water during the study, but were typically fasted from overnight before dosing until approx 6-12 hours after dosing. The animals were weighed on arrival and on the days of dosing.
In the present studies the test substances were administered subcutaneously in approx 2 nmol/kg dose. The animals received a single subcutaneous injection. The subcutaneous injection was given on the right side of the neck, approximately 5-7 cm from the ear and 7-9 cm from the middle of the neck. The injections were given with a stopper on the needle, allowing approx 0.5 cm of the needle to be introduced. Each test substance was given to typically three but in some cases two or four animals.
A full plasma concentration-time profile, employing 12-16 sampling points, was obtained from each animal. In example blood samples were collected according to the following schedule:
After subcutaneous administration:
Predose (0), 0.5, 1, 2, 4, 6, 8, 12, 24, 48, 72, 96, 120, 168 and 240 hours after injection. In some cases also additional blood samples up to 288 hours post injection were taken.
At each sampling time, 0.5 to 2 ml of blood was drawn from each animal. The blood samples were taken via the central venous catheter.
The blood samples were collected into EDTA test tubes (i.e. Sarstedt Micro tube 1.3 mL K3E). Blood samples were kept on ice for max 20 min. before centrifugation. Plasma was separated using centrifugation (i.e. at 4° C., 10 min., 1500 G) and was immediately transferred to Micronic tubes. Approximately 200 μl plasma was transferred to each Micronic tube. The plasma was stored at −20° C. until assayed. The plasma samples were assayed for the content of amylin using an ELISA assay.
The plasma concentration-time profiles were analysed by a non-compartmental pharmacokinetic analysis (NCA) using WinNonlin Professional 5.0 (Pharsight Inc., Mountain View, Calif., USA). NCA was performed using the individual plasma concentration-time profiles from each animal. T½ is the terminal half-life=ln 2/λz and was determined from λz, the first order rate constant associated with the terminal (log-linear) portion of the curve, estimated by linear regression of time vs. log concentration.
ELISA Plasma Assay for Amylin Quantification
The human amylin ELISA is a monoclonal antibody-based sandwich immunoassay for determining amylin levels in human plasma. The capture antibody recognizes human amylin, amylin acid (deamidated amylin), a 1-20 fragment of amylin, but not reduced amylin.
The detection antibody binds to reduced or unreduced human amylin but not amylin acid and is complexed with streptavidin-alkaline phosphatase. The substrate, 4-methylumbelliferyl phosphate, is applied to the completed sandwich and the fluorescent signal, monitored at 355 nm/460 nm, is proportional to the amount of amylin present in the sample.

[2] = biological target: T1, Amylin 3(a) receptor (human calcitonin receptor (CTa) and RAMP-3) (Homo sapiens, UniProt O60896+P30988); experiment: Luciferase assay (III), BHK Amylin 3(a)//CRE-luc cells; format: cell-based; details: BHK cells with Amylin 3(a) receptor and CRE luciferase reporter, 4 hours incubation; read-out: Potency Luciferase
T1 construct: expressed in transfected cells; host or cells: BHK570 cells, stably transfected with a CRE-luciferase reporter
T1 sequence (O60896 24-148): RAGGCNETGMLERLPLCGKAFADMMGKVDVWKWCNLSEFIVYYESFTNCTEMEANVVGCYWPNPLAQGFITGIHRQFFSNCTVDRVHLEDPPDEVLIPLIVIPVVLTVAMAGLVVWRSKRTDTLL
T1 sequence (P30988 25-474): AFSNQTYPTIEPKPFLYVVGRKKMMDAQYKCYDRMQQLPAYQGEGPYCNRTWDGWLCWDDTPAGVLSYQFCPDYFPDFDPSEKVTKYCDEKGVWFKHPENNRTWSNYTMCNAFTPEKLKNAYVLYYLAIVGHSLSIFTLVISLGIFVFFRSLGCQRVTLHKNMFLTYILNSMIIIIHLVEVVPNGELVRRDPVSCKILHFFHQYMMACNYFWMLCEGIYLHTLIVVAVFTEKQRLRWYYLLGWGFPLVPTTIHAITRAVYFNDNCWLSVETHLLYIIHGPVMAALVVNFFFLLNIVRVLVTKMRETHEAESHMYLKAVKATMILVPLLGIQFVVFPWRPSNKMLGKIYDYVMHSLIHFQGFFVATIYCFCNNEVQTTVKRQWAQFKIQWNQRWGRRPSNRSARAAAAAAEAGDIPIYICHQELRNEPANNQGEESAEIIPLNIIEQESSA
How it was run: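 BHK570 cells stably expressing CTa, RAMP-3 and a CRE-luciferase reporter, seeded at about 20,000 cells/well and grown overnight. Cells were exposed to standard or sample for 4 h at 37° C in phenol red-free DMEM with 10% FBS and 10 mM Hepes, pH 7,4. Luminescence was read after 30 min LucLite at room temperature.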

| half-life [1] [h] | pEC50 [2] | Compound |
| --- | --- | --- |
| 110 | 10.15 | CC[C@H](C)[C@H](NC(=O)[C@@H]1CCCN1C(=O)CNC(=O)[C@H](Cc1ccccc1)NC(=O)[C@H](CC(N)=O)NC(=O)[C@H](CC(N)=O)NC(=O)[C@H](CO)NC(=O)[C@H](CO)NC(=O)[C@H](Cc1c[nH]cn1)NC(=O)[C@H](Cc1c[nH]cn1)NC(=O)[C@H](CC(C)C)NC(=O)[C@H](Cc1ccccc1)NC(=O)[C@H](CC(N)=O)NC(=O)[C@H](C)NC(=O)[C@H](CC(C)C)NC(=O)[C@H](CCCNC(=N)N)NC(=O)[C@H](CCC(N)=O)NC(=O)[C@@H](NC(=O)[C@H](C)NC(=O)[C@@H]1CSSC[C@H](NC(=O)[C@H](Cc2c[nH]cn2)NC(=O)CC[C@H](NC(=O)CCCCCCCCCCCCCCCCCCC(=O)O)C(=O)O)C(=O)N[C@@H](CC(N)=O)C(=O)N[C@@H]([C@@H](C)O)C(=O)N[C@@H](C)C(=O)N[C@@H]([C@@H](C)O)C(=O)N1)[C@@H](C)O)C(=O)N[C@@H](CC(C)C)C(=O)N1CCC[C@H]1C(=O)N1CCC[C@H]1C(=O)N[C@H](C(=O)N[C@@H](CC(N)=O)C(=O)N[C@H](C(=O)NCC(=O)N[C@@H](CO)C(=O)N[C@@H](CC(N)=O)C(=O)N[C@H](C(=O)N[C@@H](Cc1ccc(O)cc1)C(N)=O)[C@@H](C)O)C(C)C)[C@@H](C)O [Example 29, N-alpha-[(S)-4-Carboxy-4-(19-carboxynonadecanoylamino)butyryl]-[His1,His17]-pramlintide] ({C20 diacid-γGlu}-HCNTATCATQRLANFLHHSSNNFGPILPPTNVGSNTY-NH2; disulfide 2-7) |
| 31 | 10.00 | CC[C@H](C)[C@H](NC(=O)[C@@H]1CCCN1C(=O)CNC(=O)[C@H](Cc1ccccc1)NC(=O)[C@H](CC(N)=O)NC(=O)[C@H](CC(N)=O)NC(=O)[C@H](CO)NC(=O)[C@H](CO)NC(=O)[C@H](Cc1c[nH]cn1)NC(=O)[C@H](Cc1c[nH]cn1)NC(=O)[C@H](CC(C)C)NC(=O)[C@H](Cc1ccccc1)NC(=O)[C@H](CC(N)=O)NC(=O)[C@H](C)NC(=O)[C@H](CC(C)C)NC(=O)[C@H](CCCNC(=N)N)NC(=O)[C@H](CCC(N)=O)NC(=O)[C@@H](NC(=O)[C@H](C)NC(=O)[C@@H]1CSSC[C@H](NC(=O)[C@H](CCCCN)NC(=O)[C@H](CCCNC(=N)N)NC(=O)[C@H](Cc2c[nH]cn2)NC(=O)CC[C@H](NC(=O)CCCCCCCCCCCCCCCCCCC(=O)O)C(=O)O)C(=O)N[C@@H](CC(N)=O)C(=O)N[C@@H]([C@@H](C)O)C(=O)N[C@@H](C)C(=O)N[C@@H]([C@@H](C)O)C(=O)N1)[C@@H](C)O)C(=O)N[C@@H](CC(C)C)C(=O)N1CCC[C@H]1C(=O)N1CCC[C@H]1C(=O)N[C@H](C(=O)N[C@@H](CC(N)=O)C(=O)N[C@H](C(=O)NCC(=O)N[C@@H](CO)C(=O)N[C@@H](CC(N)=O)C(=O)N[C@H](C(=O)N[C@@H](Cc1ccc(O)cc1)C(N)=O)[C@@H](C)O)C(C)C)[C@@H](C)O [Example 40, N-alpha-[(S)-4-Carboxy-4-(19-carboxynonadecanoylamino)butyryl]-His-Arg-[His17]-pramlintide] ({C20 diacid-γGlu}-HRKCNTATCATQRLANFLHHSSNNFGPILPPTNVGSNTY-NH2; disulfide 4-9) |
| 38 | 9.70 | CC[C@H](C)[C@H](NC(=O)[C@@H]1CCCN1C(=O)CNC(=O)[C@H](Cc1ccccc1)NC(=O)[C@H](CC(N)=O)NC(=O)[C@H](CC(N)=O)NC(=O)[C@H](CO)NC(=O)[C@H](CO)NC(=O)[C@H](Cc1c[nH]cn1)NC(=O)[C@H](Cc1c[nH]cn1)NC(=O)[C@H](CC(C)C)NC(=O)[C@H](Cc1ccccc1)NC(=O)[C@H](CC(N)=O)NC(=O)[C@H](C)NC(=O)[C@H](CC(C)C)NC(=O)[C@H](CCCNC(=N)N)NC(=O)[C@H](CCC(N)=O)NC(=O)[C@@H](NC(=O)[C@H](C)NC(=O)[C@@H]1CSSC[C@H](NC(=O)[C@H](CCCNC(=N)N)NC(=O)[C@H](CCCNC(=N)N)NC(=O)[C@H](Cc2c[nH]cn2)NC(=O)[C@H](CCC(=O)O)NC(=O)CC[C@H](NC(=O)CCCCCCCCCCCCCCCCCCC(=O)O)C(=O)O)C(=O)N[C@@H](CC(N)=O)C(=O)N[C@@H]([C@@H](C)O)C(=O)N[C@@H](C)C(=O)N[C@@H]([C@@H](C)O)C(=O)N1)[C@@H](C)O)C(=O)N[C@@H](CC(C)C)C(=O)N1CCC[C@H]1C(=O)N1CCC[C@H]1C(=O)N[C@H](C(=O)N[C@@H](CC(N)=O)C(=O)N[C@H](C(=O)NCC(=O)N[C@@H](CO)C(=O)N[C@@H](CC(N)=O)C(=O)N[C@H](C(=O)N[C@@H](Cc1ccc(O)cc1)C(N)=O)[C@@H](C)O)C(C)C)[C@@H](C)O [Example 55, N-alpha-[(S)-4-Carboxy-4-(19-carboxynonadecanoylamino)butyryl]-Glu-His-Arg-[Arg1,His17]-pramlintide] ({C20 diacid-γGlu}-EHRRCNTATCATQRLANFLHHSSNNFGPILPPTNVGSNTY-NH2; disulfide 5-10) |
| 53 | 10.00 | CC[C@H](C)[C@H](NC(=O)[C@@H]1CCCN1C(=O)CNC(=O)[C@H](Cc1ccccc1)NC(=O)[C@H](CC(N)=O)NC(=O)[C@H](CC(N)=O)NC(=O)[C@H](CO)NC(=O)[C@H](CO)NC(=O)[C@H](Cc1c[nH]cn1)NC(=O)[C@H](CCCNC(=N)N)NC(=O)[C@H](CC(C)C)NC(=O)[C@H](Cc1ccccc1)NC(=O)[C@H](CC(N)=O)NC(=O)[C@H](C)NC(=O)[C@H](CC(C)C)NC(=O)[C@H](CCCNC(=N)N)NC(=O)[C@H](CCC(N)=O)NC(=O)[C@@H](NC(=O)[C@H](C)NC(=O)[C@@H]1CSSC[C@H](NC(=O)[C@H](CCCCN)NC(=O)[C@H](CCCNC(=N)N)NC(=O)COCCOCCNC(=O)CC[C@H](NC(=O)CCCCCCCCCCCCCCCCCCC(=O)O)C(=O)O)C(=O)N[C@@H](CC(N)=O)C(=O)N[C@@H]([C@@H](C)O)C(=O)N[C@@H](C)C(=O)N[C@@H]([C@@H](C)O)C(=O)N1)[C@@H](C)O)C(=O)N[C@@H](CC(C)C)C(=O)N1CCC[C@H]1C(=O)N1CCC[C@H]1C(=O)N[C@H](C(=O)N[C@@H](CC(N)=O)C(=O)N[C@H](C(=O)NCC(=O)N[C@@H](CO)C(=O)N[C@@H](CC(N)=O)C(=O)N[C@H](C(=O)N[C@@H](Cc1ccc(O)cc1)C(N)=O)[C@@H](C)O)C(C)C)[C@@H](C)O [Example 23, N-alpha-[2-(2-{2-[4-(S)-Carboxy-4-(19-carboxynonadecanoylamino)butyrylamino]ethoxy}ethoxy)acetyl]-Arg-[Arg17]-pramlintide] ({C20 diacid-γGlu-AEEA}-RKCNTATCATQRLANFLRHSSNNFGPILPPTNVGSNTY-NH2; disulfide 3-8) |
